How the values were obtained:
KCNH2-1A mRNA expression = assay: KCNH2-1A expression in frontal cortex of neuroleptic treated rats; settings: for change in KCNH2-1A expression, frontal cortex: 28 days; for effect on KCNH2-1A expression within the frontal cortex: one of three doses for 28 days, vs vehicle
Method: (§1) Referring to FIG. 19, 8-10 rats per treatment group were treated with one of three doses of either Haloperidol (0.08, 0.6, and 1 mg/kg) or Clozapine (0.5, 5, 10 mg/kg) for 28 days (as compared to rats treated with vehicle alone). Frontal cortex expression levels of NOS3 (ABI assay Rn02132634_sl) and KCNH2-1A (ABI assay Rn01442523_ml) were normalized to the geometric mean of two housekeeping genes (GAPDH, B2M). Effects of antipsychotic treatment on gene expression were tested by linear regression with gene expression as the dependent variable. Differences between vehicle alone and the two therapeutic range equivalent dosages (0.08 and 0.6 mg/kg/day of Haloperidol; 0.5 and 5 mg/kg/day of Clozapine) were tested using post-hoc LSD.

NOS3 mRNA expression = assay: NOS3 expression in frontal cortex of neuroleptic treated rats; type: in vivo, rat; settings: one of three doses for 28 days, vs vehicle
Method: as §1

[1] = tested on: patients with schizophrenia; assay: CATIE trial, time to discontinuation of olanzapine (Cox proportional hazard model); type: in vivo, human; settings: for hazard ratio (HR) of discontinuation of medication: n=89; for Time to discontinuation, Est (COX proportional hazard model) / Time to discontinuation, HR (hazard ratio): n = 89, event = 46
Description: The second cohort consisted of patients randomly assigned to five medications during the Phase 1/1A (first drug assigned) of the Clinical Antipsychotic Trials of Intervention Effectiveness (CATIE), (Stroup T S, McEvoy J P, Swartz M S, et al. The National Institute of Mental Health Clinical Antipsychotic Trials of Intervention Effectiveness (CATIE) project: Schizophrenia trial design and protocol development. Schizophr. Bull. 2003; 29(1):15-31) a clinical trial to compare the effectiveness of antipsychotic drugs. Patients were initially randomly assigned to receive olanzapine, perphenazine, quetiapine, risperidone or ziprasidone under double-blind conditions and followed up for 18 months or until treatment was discontinued or switched to another antipsychotic (i.e. Phase 2). Eligible patients were 18 to 65 years of age, had received a diagnosis of schizophrenia based on DSM-IV criteria 26 and were able to take oral antipsychotic medication. The primary outcome measure in the CATIE sample was time to medication discontinuation, most often due to lack of efficacy or side-effects. PANSS ratings were included as a secondary efficacy outcome. Details on the CATIE trial methods have been previously published. (Stroup T S, McEvoy J P, Swartz M S, et al. The National Institute of Mental Health Clinical Antipsychotic Trials of Intervention Effectiveness (CATIE) project: Schizophrenia trial design and protocol development. Schizophr. Bull. 2003; 29(1):15-31.) For consistency with the NIMH inpatient study and to reduce effects of genetic heterogeneity, only Caucasian subjects were included for analysis. Because of the outpatient and parallel design of this study, information about compliance based on drug clearance is an important factor determining symptom change during the CATIE trial. (Bigos K L, Pollock B G, Coley K C, et al. Sex, race, and smoking impact olanzapine exposure. Journal of Clinical Pharmacology. 2008; 48(2):157-165; Bigos K L, Bies R R, Pollock B G, Lowy J J, Zhang F, Weinberger D R. Genetic Variation in CYP3A43 Explains Racial Difference in Olanzapine Clearance. Molecular Psychiatry. In Press.) Thus, we only analyzed treatment response from subjects on whom we had drug clearance data (N=364) (Bigos K L, Pollock B G, Coley K C, et al. Sex, race, and smoking impact olanzapine exposure. Journal of Clinical Pharmacology. 2008; 48(2):157-165). Drug clearance was estimated using population pharmacokinetic modeling of drug concentrations and used in the statistical analysis of treatment response as previously described. (Bigos K L, Pollock B G, Coley K C, et al. Sex, race, and smoking impact olanzapine exposure. Journal of Clinical Pharmacology. 2008; 48(2):157-165. Bigos K L, Bies R R, Pollock B G, Lowy J J, Zhang F, Weinberger D R. Genetic Variation in CYP3A43 Explains Racial Difference in Olanzapine Clearance. Molecular Psychiatry. In Press.)
We genotyped three SNPs rs3900779, rs748693 and rs1036145 in KCNH2 which have been associated with schizophrenia and with expression of the novel KCNH2 3.1 isoform in human post-mortem brain. (Huffaker S J, Chen J S, Nicodemus K K, et al. A primate-specific, brain isoform of KCNH2 affects cortical physiology, cognition, neuronal repolarization and risk of schizophrenia. Nat. Med. May 2009; 15(5):509-518.) Genotypes were determined using the 5′-exonuclease fluorescent Taqman assay (assay by design or assay on demand) and the allelic discrimination was read on an ABI 7900 SDS system (Applied Biosystems, Foster City, Calif.). (Livak K J. Allelic discrimination using fluorogenic probes and the 5′ nuclease assay. Genet. Anal.-Biomol. Eng. February 1999; 14(5-6):143-149.)
We also attempted to examine time to discontinuation of medication, which was a primary outcome measure of the CATIE trial. […]

[2] = rs748693, second genotype line (genotype not given) vs non-risk allele homozygote
[3] = rs748693 GG genotype vs non-risk allele homozygote
[4] = rs1036145, second genotype line (genotype not given) vs non-risk allele homozygote
[5] = rs1036145 TT genotype vs non-risk allele homozygote
[6] = rs3900779, second genotype line (genotype not given) vs reference
[7] = rs3900779, third genotype line (genotype not given) vs reference

Row | SMILES | change in KCNH2-1A expression, frontal cortex (KCNH2-1A mRNA expression; 0.08 mg/kg/day, did not reach significance (p=0.082)) | change in KCNH2-1A expression, frontal cortex (KCNH2-1A mRNA expression; 0.6 mg/kg/day, did not reach significance (p=0.119)) | effect on KCNH2-1A expression within the frontal cortex (KCNH2-1A mRNA expression) | effect on NOS3 expression within the frontal cortex (NOS3 mRNA expression) | times less likely to have discontinued medication ([1]; GG genotype at rs748693 vs non-risk allele homozygote) [times] | hazard ratio (HR) of discontinuation of medication ([1]; GG genotype at rs748693 vs non-risk allele homozygote, p=0.031) | times less likely to have discontinued medication ([1]; TT genotype at rs1036145 vs non-risk allele homozygote) [times] | hazard ratio (HR) of discontinuation of medication ([1]; TT genotype at rs1036145 vs non-risk allele homozygote, p=0.033) | Time to discontinuation, Est (COX proportional hazard model) [1, 2] | Time to discontinuation, HR (hazard ratio) [1, 2] | Time to discontinuation, Est (COX proportional hazard model) [1, 3] | Time to discontinuation, HR (hazard ratio) [1, 3] | Time to discontinuation, Est (COX proportional hazard model) [1, 4] | Time to discontinuation, HR (hazard ratio) [1, 4] | Time to discontinuation, Est (COX proportional hazard model) [1, 5] | Time to discontinuation, HR (hazard ratio) [1, 5] | Time to discontinuation, Est (COX proportional hazard model) [1, 6] | Time to discontinuation, HR (hazard ratio) [1, 6] | Time to discontinuation, Est (COX proportional hazard model) [1, 7] | Time to discontinuation, HR (hazard ratio) [1, 7]
1 | O=C(CCCN1CCC(O)(c2ccc(Cl)cc2)CC1)c1ccc(F)cc1 [haloperidol] | slight decrease | slight decrease | Neither clozapine nor haloperidol showed significant effects | Neither clozapine nor haloperidol showed significant effects | – | – | – | – | – | – | – | – | – | – | – | – | – | – | – | –
2 | Cc1cc2c(s1)Nc1ccccc1N=C2N1CCN(C)CC1 [olanzapine] | – | – | – | – | ~4 | 0.254 | ~5 | 0.208 | −0.119 | 0.888 | −1.371 | 0.254 | −0.06 | 0.942 | −1.569 | 0.208 | −0.431 | 0.65 | −0.688 | 0.503
3 | CN1CCN(C2=Nc3cc(Cl)ccc3Nc3ccccc32)CC1 [clozapine] | – | – | Neither clozapine nor haloperidol showed significant effects | – | – | – | – | – | – | – | – | – | – | – | – | – | – | – | – | –

Reference: patent US8871443B2, “Schizophrenia-related isoform of KCNH2 and development of antipsychotic drugs” (The United States of America, as represented by the …, priority 2007, dated 2014)
